Patent US10774121B2, “Methods and compositions for treating neurodegenerative disorders and Alzheimer's Disease and improving normal memory” (The Regents of the University of California, priority 2006, dated 2020)
Entries after “also recorded” stand apart in the source; their conditions may differ.

Key:
[1] = system: Aβ production; assay: ELISA of Aβ produced in β-APP-only:PS-1-only co-culture extracts; format: cell-based, mouse; conditions: synthetic peptides 0-3 μM added at the time of the co-culture
Experimental: Co-cultures of β-APP-only and PS-1-only cells were carried out in the presence and absence of Peptide 1-80 (0-3 μM). ^35S-GTPγS assays were carried out on extracts as a measure of G-protein activation. The Aβ produced in these co-culture extracts was determined by ELISA.
ES-derived mouse cells (PS-1^−/−; PS-2^−/−) that expressed only small amounts of endogenous β-APP but no PS, were transiently transfected with cDNA for human β-APP to produce cells expressing excess human β-APP over mouse β-APP, and no PS-1 or PS-2 (β-APP-only cells). Embryonic (E18) mouse primary fibroblasts derived from β-APP-null mice, expressing only small amounts of endogenous PS-1 and PS-2, were transfected with cDNAs for human PS-1 to produce cells expressing excess human over mouse PS-1 but no β-APP (PS-1-only cells). The minigenes were co-transfected with PS-1 in the PS-only APP−/− fibroblasts to inhibit the endogenous mouse Gα under investigation in those cells. PS−/− ES cells were separately transfected with human β-APP cDNA (β-APP only cells) and the two types of cells were co-cultured for 24 hours. Cells were harvested and detergent-buffer extracts of the co-cultures were prepared. Determination of [^35S]GTPγS incorporation in these cultures was carried out in the presence and absence of each minigene: Aliquots each containing 100 μg total protein were reacted with ^35S-GTPγS and immunoprecipitation of each ^35S-GTPγS-treated extract was carried out with antibodies directed to the particular Gα under investigation. Specificity of binding of a particular Gα to PS-1 was established by blocking of GTPγS incorporation in the presence of the specific minigene inhibitor.
Co-culture of β-APP-only with PS-1-only cells was carried out as described above.
ELISA for the production of Aβ1-40 was carried out using sandwich ELISA kits (Biosource).

[2] = target: T1, Gαs (Rattus norvegicus, UniProt P63095); assay: Stimulation of 35S-GTPγS binding to Gs by PS-1 cytoplasmic peptides in rat hippocampal membrane preparations; format: biochemical; conditions: peptides 200 μM, rat hippocampal membranes
T1 construct: tissue Applied Cell Science, Rockville, Md; host or cells: rat hippocampal membranes, solubilized in CHAPS buffer
T1 sequence (P63095 whole entry): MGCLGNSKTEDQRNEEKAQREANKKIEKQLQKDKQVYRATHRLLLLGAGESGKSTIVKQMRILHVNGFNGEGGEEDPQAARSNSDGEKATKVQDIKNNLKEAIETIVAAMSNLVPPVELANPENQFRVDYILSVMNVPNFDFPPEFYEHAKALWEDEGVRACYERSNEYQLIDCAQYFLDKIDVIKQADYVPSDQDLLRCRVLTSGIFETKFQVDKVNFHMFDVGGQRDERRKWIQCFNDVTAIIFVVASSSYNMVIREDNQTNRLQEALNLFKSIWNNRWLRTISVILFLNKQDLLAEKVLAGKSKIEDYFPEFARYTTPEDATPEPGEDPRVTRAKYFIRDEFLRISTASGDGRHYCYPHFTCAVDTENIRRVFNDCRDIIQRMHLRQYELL
Experimental: (§1) The autonomous activation of G-proteins Gαo, Gαq and Gαs by oligopeptides corresponding to cytoplasmic loops 1, 2, 3 and the COOH tail of human PS-1 in the 7-TM PS model were examined. The peptides were individually tested for their ability to stimulate ^35S-GTPγS binding to each G-protein in rat hippocampal membrane preparations.
(§2) Rat hippocampal membranes (Applied Cell Science, Rockville, Md.) were solubilized in CHAPs buffer.
(§3) Peptides (200 μM) were incubated without pre-treatment with solubilized rat hippocampal membranes (50 μg) in the ^35S reaction mixture. Accumulation of γ-S GTP the ^35S-GTPγS was determined after immunoprecipitation with the specific anti-G Ab.

[3] = target: T2, Gαo (Rattus norvegicus, UniProt P59215); assay: Stimulation of 35S-GTPγS binding to Go by PS-1 cytoplasmic peptides in rat hippocampal membrane preparations; format: biochemical; conditions: peptides 200 μM; for stimulation of 35S-GTPγS binding to Go: rat hippocampal membranes
T2 construct: tissue Applied Cell Science, Rockville, Md; host or cells: rat hippocampal membranes, solubilized in CHAPS buffer
T2 sequence (P59215 whole entry): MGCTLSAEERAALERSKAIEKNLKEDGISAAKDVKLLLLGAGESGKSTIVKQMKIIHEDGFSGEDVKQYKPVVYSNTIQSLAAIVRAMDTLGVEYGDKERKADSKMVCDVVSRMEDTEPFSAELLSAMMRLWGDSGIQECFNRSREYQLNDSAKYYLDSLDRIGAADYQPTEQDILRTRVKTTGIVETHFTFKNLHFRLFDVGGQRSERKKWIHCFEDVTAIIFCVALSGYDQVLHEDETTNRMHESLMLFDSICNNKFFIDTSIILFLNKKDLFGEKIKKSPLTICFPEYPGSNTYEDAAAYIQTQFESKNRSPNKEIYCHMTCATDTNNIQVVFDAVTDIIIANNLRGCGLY
Excerpt: To provide evidence that the GoA binding observed in FIG. 5A was directly to PS-1, and not to a co-immunoprecipitated, PS-associated protein the autonomous activation of Go by synthetic peptide fragments corresponding to cytoplasmic loops 1, 2, 3 and the carboxyl tail of PS-1 (in the 7-TM PS model) were investigated (see FIGS. 20B and C and Table 1). The peptides were individually tested for their ability to stimulate ^35S-GTPγS binding to Go in rat hippocampal membrane preparations.
as §1, §2, §3

[4] = target: T3, Gαq (Rattus norvegicus, UniProt P82471); assay: Stimulation of 35S-GTPγS binding to Gq by PS-1 cytoplasmic peptides in rat hippocampal membrane preparations; format: biochemical; conditions: peptides 200 μM, rat hippocampal membranes
T3 sequence (P82471 1-359): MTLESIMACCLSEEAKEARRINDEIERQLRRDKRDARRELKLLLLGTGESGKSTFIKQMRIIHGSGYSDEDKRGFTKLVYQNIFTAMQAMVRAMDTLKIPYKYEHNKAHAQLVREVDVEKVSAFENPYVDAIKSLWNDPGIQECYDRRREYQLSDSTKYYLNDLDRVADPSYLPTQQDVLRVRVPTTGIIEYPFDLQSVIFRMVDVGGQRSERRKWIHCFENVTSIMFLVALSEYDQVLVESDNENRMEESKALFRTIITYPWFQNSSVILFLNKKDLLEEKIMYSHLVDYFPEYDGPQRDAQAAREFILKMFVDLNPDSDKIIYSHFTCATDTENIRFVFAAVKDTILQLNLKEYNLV
Experimental: as §1, §2, §3

[5] = system: protein tyrosine kinase activity; assay: Protein tyrosine kinase ELISA on extracts of β-APP-transfected ES double-null cells mixed with PS-1-transfected DAMI cells; format: cell-based; conditions: 25 μg protein added, 0-20 min after mixing
Experimental: DAMI:ES cells: Equal numbers (0.5×10^6/ml) of β-APP 695 (Selkoe and Podlisny, 2002)-transfected ES double-null cells and PS-1 transfected DAMI cells were co-cultured at 37° C. for various times between 0-20 mins.
At several times between 0 and 20 min after mixing, an aliquot of each cell mixture was rapidly centrifuged, the culture medium was removed, and the cell pellet was suspended in 200 μl of extraction buffer (50 mM Tris, pH 8.0/150 mM NaCl/0.5% Nonidet-P40) containing protease inhibitors (1 mM 4-(2-aminoethyl) benzene sulfonyl fluoride hydrochloride (AEBSF)/1 μg/ml antipain/0.1 μg/ml pepstatin A/0.1 μg/ml leupeptin) and the phosphatase inhibitor sodium orthovanadate (0.1 mM). The mixture was sonicated with three bursts of 20 sec duration and then centrifuged. These extract supernatants were then used for Western blot and ELISA analyses as described below.
ELISAs Protein tyrosine kinase activity was measured by an Enzyme Linked Immunosorbent Assay (ELISA) using a tyrosine kinase assay kit (Upstate Biotechnology). A biotinylated substrate peptide containing tandem repeats of Poly (Glu4-Tyr) was incubated with supernatants of extracts of transfected cells mixed for different times ([…]) in the presence of non-radioactive ATP and a Mn^2+/Mg^2+ co-factor cocktail according to the manufacturer's protocols. A phosphotyrosine specific mouse monoclonal antibody (4G10) conjugated to horseradish peroxidase was used to detect the phosphorylated substrate by ELISA.
ES double-null cells transfected with β-APP were mixed with DAMI cells transfected with PS-1, and were co-cultured for various times between 0-20 min, using cell densities that ensured cell-cell contact. ELISA assays were then carried out on cell extracts to measure protein tyrosine kinase activity. […]

[6] = system: Gαo; assay: 35S-GTPγS incorporation after addition of β-APPs to cell cultures, immunoprecipitation with Gαo antibodies; format: cell-based, mouse
Experimental: In addition, water-soluble β-APP ectodomain itself (B-APPs), when added to cultures of PS-1-only cells, could also activate G-proteins in a dose-dependent manner. β-APPs was partially purified from conditioned media of baculovirus cultures over-expressing human β-APP. The final product (FIG. 18b, lane 1) had, in addition to β-APP, three major contaminating bands at 81 kDa, 55 kDa and 31 kDa that co-purified with the β-APP ectodomain. This partially purified β-APPs preparation was added in increasing amounts to PS-1-only APP^−/− fibroblasts. After 15 mins the cells from each well were harvested in extraction buffer, and detergent extracts (each containing 100 μg protein) were treated with ^35S-GTPγS. Activation of Gαo was assayed after immunoprecipitation of the activated ^35S-GTPγS-Gαo with the Gαo-specific antibodies. […] Furthermore, when partially purified β-APPs was added to untransfected ES (PS^−/−) cells, no increase in G-protein activation was observed by ^35S-GTPγS assays (FIG. 18A, curve 5), further implicating PS as a receptor for the β-APP ligand in the Gαo activation.
To confirm that it was indeed the β-APPs in the partially purified β-APPs preparation that was the ligand responsible for G-protein activation, and not one of the contaminants, β-APPs was removed from the preparation by treatment with MAb 348 to β-APP (see FIG. 18C, lane 2). This β-APPs-depleted solution at the same concentrations used for the non-depleted preparation, was added to the PS-1-only cells, which were then treated exactly as described above. […] In contrast, the β-APPs preparation similarly treated with an irrelevant IgG when added to PS-1-only cells, gave results that resembled those obtained with the untreated samples (FIG. 18A, curve 2).
(§4) ^35S-GTPγS Assays: Extract (100 μg of total protein) was mixed with an equal volume of GTPγS Buffer B (50 mM HEPES/NaOH pH 7.4, 40 μM GDP, 50 mM MgCl2, 100 mM NaCl) and reacted with 50 nM ^35S-GTPγS (1250 Ci/mmol, Perkin Elmer, Waltham, Mass.) for 60 min at RT. The reaction was stopped with 10× Stopping buffer (100 mM Tris-HCl, pH 8, 25 mM MgCl2, 100 mM NaCl, 20 mM GTP) followed by immunoprecipitation of the ^35S-GTPγS-Gαo complex with Ab against a particular Gα. The Ab-protein complex was absorbed to Protein A/G agarose for 90 min at RT and washed. The agarose beads were suspended in scintillation fluid (CytoScint, ICN) (5 ml) and counted in a Beckman Coulter LS 6000 SC scintillation counter for 3 min.

[7] = system: G-protein Go; assay: 35S-GTPγS incorporation after addition of β-APPs to solubilized rat hippocampal membranes; format: biochemical
Experimental: Because the results so far described were obtained using only cultured cells transfected with human PS, binding of the endogenous rat PS proteins with rat Gαo present in rat hippocampal membranes was examined. […]
as §4, §2

Q: With “DEEEDEEL [Peptide 8, 8-mer of the PS-1 N-terminal domain]” as the substance, how does the “cell-cell interaction and Aβ production, ELISA” value [1] read?
A: Its value is “inhibits”.

Q: Which “cell-cell interaction and Aβ production, ELISA” value [1] does the source give for “DEEEDEELTLKYGAK [Peptide 7, 15-mer of the PS-1 N-terminal domain]” here?
A: Its value is “inhibits”.

Q: Which “stimulation of 35S-GTPγS binding to Gs” value [2] does the source give for “KSVSFYTRKDGQLIYT [ic1(1-16), PS-1 cytoplasmic loop 1 peptide]” here?
A: Its value is “not”.

Q: Which results are given for “KYLPE [ic3, PS-1 cytoplasmic loop 3 peptide]”?
A: stimulation of 35S-GTPγS binding to Go [3]: robust stimulation; increase in activation of 35S-GTPγS binding over samples without peptide ([3]; rat membranes): 200%; stimulation of 35S-GTPγS binding to Gq [4]: robust stimulation; stimulation of 35S-GTPγS binding to Gs [2]: only background stimulation

Q: What does the source list for “N-terminal domain of PS-1 fused to FLAG: fusion protein with FLAG attached at the N-terminus of the PS-1 N-terminal domain, grown in DH5α bacteria”?
A: transient increase in protein tyrosine kinase activity after cell mixing [5]: specifically inhibited; also recorded: none of the increases; transient increase in protein tyrosine kinase activity after cell mixing ([5]; listed as FLAG reporter fused to the N-terminal domain of PS-1): no increase

Q: For “PFTEDTETVGQRALHS [ic1(17-32), PS-1 cytoplasmic loop 1 peptide]”, which “stimulation of 35S-GTPγS binding to Gs” value [2] is on record?
A: Its value is “induced stimulation”.

Q: “RRSLGHPEPLSNGRP [Peptide 4, 15-mer of the PS-1 N-terminal domain]” was tested. Which “cell-cell interaction and Aβ production, ELISA” value [1] did it give?
A: Its value is “inhibits”.

Q: Which results are given for “TDYLVQPFMDQLAFHQFYI [C(21-39), remaining 19 amino acids of the PS-1 cytoplasmic C-terminal tail]”?
A: stimulation of 35S-GTPγS binding to Go ([3]; listed as COOH-terminal peptide corresponding to residues 21-39): failed to activate; also recorded: no detectable Go activation; stimulation of 35S-GTPγS binding to Gq [4]: robust stimulation; stimulation of 35S-GTPγS binding to Gs [2]: induced stimulation

Q: Which “stimulation of 35S-GTPγS binding to Go” value [3] does the source give for “VFKTYNVAVD [ic2, PS-1 cytoplasmic loop 2 peptide]” here?
A: Its value is “only background stimulation”.

Q: What about the “stimulation of 35S-GTPγS binding to Gq” value [4] of the same substance?
A: Its value is “only background stimulation”.

Q: And the “stimulation of 35S-GTPγS binding to Gs” value [2]?
A: Its value is “only background stimulation”.

Q: How did the “transient increase in protein tyrosine kinase activity after cell mixing” value [5] turn out when “β-APPs: water-soluble β-APP ectodomain, baculovirus-derived, purified or partially purified” was run?
A: The value was “specifically inhibited; also recorded: no increase; also recorded: none of the increases”.

Q: What about the 35S-GTPγS incorporation ([6]; PS-1-only APP-/- fibroblast cultures, increasing β-APPs, 15 mins) of the same substance?
A: Its 35S-GTPγS incorporation is “increased ^35S-GTPgS incorporation in a dose-dependent manner”.

Q: What about the “maximum increase in incorporation of 35S-GTPγS” value ([6]; PS-1-only APP-/- fibroblasts, 120 pM β-APPs) of the same substance?
A: Its value is “over 500%”.

Q: What about the 35S-GTPγS incorporation ([6]; untransfected APP-/- fibroblasts expressing only endogenous PS) of the same substance?
A: The 35S-GTPγS incorporation was “modest G-protein activation; also recorded: only modest increases”.

Q: And the 35S-GTPγS incorporation ([6]; untransfected ES (PS-/-) cells)?
A: The 35S-GTPγS incorporation was “no increase; also recorded: no significant increases”.

Q: And the 35S-GTPγS incorporation ([7]; PS-depleted rat membranes (pre-treated with polyclonal Ab to PS-1 and PS-2))?
A: Its 35S-GTPγS incorporation is “did not occur; also recorded: no increase”.

Q: What about the “incorporation of 35S-GTPγS greater than untreated samples” value ([7]; rat hippocampal membranes, 80 pM β-APPs) of the same substance?
A: The value was 100%.

Q: What about the “increase in G-protein Go activation” value ([7]; rat hippocampal membranes, 400 pM β-APPs) of the same substance?
A: The value was “greater than 600%”.

Q: What about the 35S-GTPγS incorporation ([7]; solubilized rat hippocampal membranes (100 μg), 0-400 pM β-APPs, 15 min) of the same substance?
A: Its 35S-GTPγS incorporation is “increased ^35S-GTPgS incorporation in a dose-dependent manner”.
